Experimental data reported in ChEMBL document CHEMBL1141293, “Cassane furanoditerpenoids from the seed kernels of Caesalpinia bonduc from Thailand” (J Nat Prod, 2007).
The source made the active and inactive calls. The calls are words filed in the database; no cut-off is given here.

How the values were obtained:
BT-474 = assay: Cytotoxicity against human BT474 cells at 10 ug/ml by MTT assay; assay type: functional, cell-based
HepG2 = assay: Cytotoxicity against human HepG2 cells at 10 ug/ml by MTT assay; assay type: functional, cell-based
Plasmodium falciparum [1] = assay: Antimalarial activity against multidrug-resistant Plasmodium falciparum K1 by microculture radioisotope assay; assay type: functional, organism-based
KATO3 = assay: Cytotoxicity against human KATO3 cells at 10 ug/ml by MTT assay; assay type: functional, cell-based
CHAGO = assay: Cytotoxicity against human CHAGO cells at 10 ug/ml by MTT assay; assay type: functional, cell-based
SW-620 = assay: Cytotoxicity against human SW620 cells at 10 ug/ml by MTT assay; assay type: functional, cell-based
Plasmodium falciparum [2] = assay: Antimalarial activity against multidrug-resistant Plasmodium falciparum K1 at 10 uM by microculture radioisotope assay; assay type: functional, organism-based

Structure (SMILES) | Activity (BT-474) | Activity (HepG2) | IC50 (Plasmodium falciparum [1]) [µM] | Activity (KATO3) | Activity (CHAGO) | Activity (SW-620) | Activity (Plasmodium falciparum [2])
COC(=O)[C@@H]1c2ccoc2C[C@H]2[C@H]1[C@@H](OC(C)=O)[C@H](O)[C@@]1(O)C(C)(C)CCC(=O)[C@]21C [BONDUCELLPIN E] | Not toxic | Not toxic | 1.6 | Not toxic | Not toxic | Not toxic | 
C=C1c2ccoc2C[C@H]2[C@H]1[C@@H](OC(C)=O)[C@H](O)[C@@]1(O)C(C)(C)CCC(=O)[C@]21C [BONDUCELLPIN F] | Not toxic | Not toxic | 5.8 | Not toxic | Not toxic | Not toxic | 
C=C1c2ccoc2C[C@H]2[C@H]1[C@@H](O)[C@H](OC(C)=O)[C@@]1(O)C(C)(C)CC[C@H](OC(C)=O)[C@]21C [BONDUCELLPIN G] | Not toxic | Not toxic | 3.8 | Not toxic | Not toxic | Not toxic | 
C[C@H]1[C@@H](O)O[C@@H]2O[C@@]3(C)CC[C@H]4[C@H](C)CC[C@@H]1[C@@]24OO3 [ARTENIMOL] |  |  | 0.004 |  |  |  | 
CC(=O)O[C@@H]1[C@@H]2[C@H](Cc3occc3[C@@]2(C)O)[C@@]2(C)C(=O)CCC(C)(C)[C@]2(O)[C@H]1OC(C)=O | Not toxic | Not toxic |  | Not toxic | Not toxic | Not toxic | inactive
